From patent US20090246134A1, “COMPOSITIONS AND METHODS FOR MODULATING GATED ION CHANNELS” (PainCeptor Pharma Corporation, priority 2007, published 2009)
Where “and” joins values, the source holds several entries; their conditions need not be identical. Equal entries are not always repeated.

Test: Liver microsomes stability and metabolite identification (LC-MS), human
Type: in vitro ADME
Description: The objective of this study is to analyze in vitro samples of Compound A and Compound B from rat and human microsomes using liquid chromatography quadrupole ion trap mass spectrometry and identify the nature of the metabolite(s) for each species.
The HPLC system consisted of a Thermo Surveror autosampler and a Thermo Surveyor MS pump (San Jose, Calif., USA). The LC-MS/MS system used was a Thermo LCQ Advantage (San Jose, Calif., USA). Data was acquired on a Dell Optiplex desktop computer (Round Rock, Tex., USA) equipped with operation system Windows XP professional. Data acquisition and analysis were performed using XCalibur 1.4 (San Jose, Calif., USA).
After the incubation period of the liver microsomes, the reaction was stopped with the addition of acetonitrile and frozen for transport. Before analysis, the samples were thawed at room temperature. They were vortexed vigorously and centrifuged at approximately 12000 g for 10 minutes. The supernatant was transferred into an injection vial for analysis.
A gradient mobile phase was used with a Thermo Phenyl 100×2 mm column with particle size of 5 μm. The initial mobile phase condition consisted of methanol and 0.1% formic acid solution at a ratio of 20:80, respectively. From 0 to 2 minutes, the ratio was maintained at 20:80. From 2 to 10 minutes, a linear gradient was applied and a ratio of 90:10 was maintained from 10 to 12 minutes. […] The flow rate was fixed at 0.25 mL/min.
The mass spectrometer was interfaced with the HPLC system using a pneumatic assisted electrospray ion source. The sheath gas was set to 15 units and the ESI electrode was set to 4000 V (positive mode). The capillary temperature was set at 300° C., and the capillary voltage was set to 13 V. The mass spectrometer was operating in full scan MS mode using one segment analysis (200-800).

[1] = human microsomes 60 min (samples 14-16)

Structure (SMILES): COc1ccc(F)cc1-c1cc2c(c3c1CCN(C)C3)NC(=O)C2=NO [Compound A, 5-(5-fluoro-2-methoxyphenyl)-6,7,8,9-tetrahydro-3-(hydroxyimino)-8-methyl-1H-pyrrolo[3,2-h]isoquinoline-2(3H)-one]
- Total % metabolites (% peak area relative to parent at T0, 60 min incubation, human microsomes): 8.08%
- Compound A metabolite identification: m/z 342 [1]: Yes
- Compound A metabolite identification: m/z 356 (parent) [1]: Yes
- Compound A metabolite identification: m/z 372 [1]: Yes
- Compound A metabolite identification: m/z 412 [1]: no
- Calc. Conc. (human microsomes, time 0 min): 4.91 µM and 6.54 µM
- Calc. Conc. (human microsomes, time 60 min): 3.84 µM and 3.83 µM and 3.77 µM
